Measured values taken from US9758527B2, “Cyclohexene derivative, preparation method therefor, and pharmaceutical composition for preventing or treating metabolic diseases, containing same as active ingredient” (HYUNDAI PHARM CO., LTD., priority 2014, dated 2017).
Like-named read-outs stand apart in the source and are kept apart here.

Molecular target: T1, G protein-coupled receptor 119 (GPR-119) (Mesocricetus auratus, UniProt A0A1U8CD06)
T1 construct: hamster-derived β-cells containing G protein-coupled receptor 119 (GPR-119), HIT-T15 cells; host or cells: HIT-T15 (hamster pancreatic β-cells)
T1 sequence (A0A1U8CD06 1-334): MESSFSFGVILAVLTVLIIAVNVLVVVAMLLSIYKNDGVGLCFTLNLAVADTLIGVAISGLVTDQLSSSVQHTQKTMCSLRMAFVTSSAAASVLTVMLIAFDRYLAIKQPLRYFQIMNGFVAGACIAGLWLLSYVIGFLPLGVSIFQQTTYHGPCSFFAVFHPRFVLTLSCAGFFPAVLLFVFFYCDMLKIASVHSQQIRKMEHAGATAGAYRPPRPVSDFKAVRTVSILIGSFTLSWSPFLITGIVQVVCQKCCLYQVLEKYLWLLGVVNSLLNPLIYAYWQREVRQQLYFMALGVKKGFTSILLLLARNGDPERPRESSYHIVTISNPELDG
Assay: Evaluation of cAMP activity in HIT-T15 cells (HTRF cAMP dynamic kit)
Type: cell-based, hamster
Conditions: cAMP activation
How it was run: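 HIT-T15 cells, 60,000/well, treated next day with compound at six concentrations ([…]) for 1 h at 37° C. Lysate cAMP quantified by HTRF competitive immunoassay (D2-cAMP, cryptate anti-cAMP); activity taken as change in FRET signal relative to DMSO.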

[1] = 1 h at 37° C., six concentrations, read-out: EC50

CC(C)c1noc(N2CCC(COc3ccc(C4=CCC(C(=O)N5CCC[C@@H]5C(N)=O)CC4)cc3F)CC2)n1 (stereo partly drawn) [Example 116, (2R)-1-(4-(3-fluoro-4-((1-(3-isopropyl-1,2,4-oxadiazol-5-yl)piperidin-4-yl)methoxy)phenyl)cyclohex-3-enecarbonyl)pyrrolidine-2-carboxamide]
EC50 [1]: 28 nM
EC50 (read-out: EC50 value): ≤ 50 nM

CC(C)c1noc(N2CCC(COc3ccc(C4=CCC(C(=O)N5CCC[C@@H]5C#N)CC4)cc3F)CC2)n1 (stereo partly drawn) [Example 117, (2R)-1-(4-(3-fluoro-4-((1-(3-isopropyl-1,2,4-oxadiazol-5-yl)piperidin-4-yl)methoxy)phenyl)cyclohex-3-enecarbonyl)pyrrolidine-2-carbonitrile]
EC50 [1]: 11 nM
EC50 (read-out: EC50 value): ≤ 50 nM

CC(C)c1noc(N2CCC(COc3ccc(C4=CCC(C(=O)NCCO)CC4)cc3F)CC2)n1 (stereo not shown) [Example 120, 4-(3-fluoro-4-((1-(3-isopropyl-1,2,4-oxadiazol-5-yl)piperidin-4-yl)methoxy)phenyl)-N-(2-hydroxyethyl)cyclohex-3-enecarboxamide]
EC50 [1]: 80 nM

CC(C)c1noc(N2CCC(COc3ccc(C4=CCC(C(=O)NCC(=O)N5CCC[C@@H]5C(N)=O)CC4)cc3F)CC2)n1 (stereo partly drawn) [Example 121, (2R)-1-(2-(4-(3-fluoro-4-((1-(3-isopropyl-1,2,4-oxadiazol-5-yl)piperidin-4-yl)methoxy)phenyl)cyclohex-3-enecarboxamido)acetyl)pyrrolidine-2-carboxamide]
EC50 [1]: 500 nM

CC(C)c1noc(N2CCC(COc3ccc(C4=CCC(C(=O)NCC(=O)N5CCC[C@@H]5C#N)CC4)cc3F)CC2)n1 (stereo partly drawn) [Example 122, N-(2-((R)-2-cyanopyrrolidin-1-yl)-2-oxoethyl)-4-(3-fluoro-4-((1-(3-isopropyl-1,2,4-oxadiazol-5-yl)piperidin-4-yl)methoxy)phenyl)cyclohex-3-enecarboxamide]
EC50 [1]: 130 nM

CCc1cnc(N2CCC(COc3ccc(C4=CCC(C(=O)N5CCN(C6CC6)CC5)CC4)cc3)CC2)nc1 (stereo not shown) [Example 123, (4-cyclopropylpiperazin-1-yl)(4-(4-((1-(5-ethylpyrimidin-2-yl)piperidin-4-yl)methoxy)phenyl)cyclohex-3-enyl)methanone]
EC50 [1]: 35 nM
EC50 (read-out: EC50 value): ≤ 50 nM

CCc1cnc(N2CCC(COc3ccc(C4=CCC(C(=O)N5CCN(CC6CC6)CC5)CC4)cc3)CC2)nc1 (stereo not shown) [Example 124, (4-(cyclopropylmethyl)piperazin-1-yl)(4-(4-((1-(5-ethylpyrimidin-2-yl)piperidin-4-yl)methoxy)phenyl)cyclohex-3-enyl)methanone]
EC50 [1]: 100 nM

C[C@H](O)CNC(=O)C1CC=C(c2ccc(OCC3CCN(C(=O)OC(C)(C)C)CC3)cc2F)CC1 (stereo partly drawn) [Example 125, tert-butyl 4-((3-fluoro-4-(4-((S)-2-hydroxypropylcarbamoyl)cyclohex-1-enyl)phenoxy)methyl)piperidine-1-carboxylate]
EC50 [1]: 70 nM

C[C@@H](O)CNC(=O)C1CC=C(c2ccc(OCC3CCN(C(=O)OC(C)(C)C)CC3)cc2F)CC1 (stereo partly drawn) [Example 126, tert-butyl 4-((3-fluoro-4-(4-((R)-2-hydroxypropylcarbamoyl)cyclohex-1-enyl)phenoxy)methyl)piperidine-1-carboxylate]
EC50 [1]: 130 nM

CCc1cnc(N2CCC(COc3ccc(C4=CCC(C(=O)N[C@@H](C)CO)CC4)cc3)CC2)nc1 (stereo partly drawn) [Example 127, 4-(4-((1-(5-ethylpyrimidin-2-yl)piperidin-4-yl)methoxy)phenyl)-N-((S)-1-hydroxypropan-2-yl)cyclohex-3-enecarboxamide]
EC50 [1]: 83 nM

CCc1cnc(N2CCC(COc3ccc(C4=CCC(C(=O)NC[C@H](O)CO)CC4)cc3)CC2)nc1 (stereo partly drawn) [Example 128, N-((S)-2,3-dihydroxypropyl)-4-(4-((1-(5-ethylpyrimidin-2-yl)piperidin-4-yl)methoxy)phenyl)cyclohex-3-enecarboxamide]
EC50 [1]: 200 nM

C[C@H](CO)NC(=O)C1CC=C(c2ccc(OCC3CCN(C(=O)OC(C)(C)C)CC3)cc2F)CC1 (stereo partly drawn) [Example 129, tert-butyl 4-((3-fluoro-4-(4-((R)-1-hydroxypropan-2-ylcarbamoyl)cyclohex-1-enyl)phenoxy)methyl)piperidine-1-carboxylate]
EC50 [1]: 140 nM

C[C@@H](CO)NC(=O)C1CC=C(c2ccc(OCC3CCN(C(=O)OC(C)(C)C)CC3)cc2F)CC1 (stereo partly drawn) [Example 130, tert-butyl 4-((3-fluoro-4-(4-((S)-1-hydroxypropan-2-ylcarbamoyl)cyclohex-1-enyl)phenoxy)methyl)piperidine-1-carboxylate]
EC50 [1]: 90 nM

CC(C)(C)OC(=O)N1CCC(COc2ccc(C3=CCC(C(=O)NC[C@@H](O)CO)CC3)c(F)c2)CC1 (stereo partly drawn) [Example 131, tert-butyl 4-((4-(4-((R)-2,3-dihydroxypropylcarbamoyl)cyclohex-1-enyl)-3-fluorophenoxy)methyl)piperidine-1-carboxylate]
EC50 [1]: 150 nM

CC(C)(C)OC(=O)N1CCC(COc2ccc(C3=CCC(C(=O)NC[C@H](O)CO)CC3)c(F)c2)CC1 (stereo partly drawn) [Example 132, tert-butyl 4-((4-(4-((S)-2,3-dihydroxypropylcarbamoyl)cyclohex-1-enyl)-3-fluorophenoxy)methyl)piperidine-1-carboxylate]
EC50 [1]: 210 nM

CC(C)c1noc(N2CCC(COc3ccc(C4=CCC(C(=O)NCC(=O)N5CCC[C@H]5C(N)=O)CC4)cc3F)CC2)n1 (stereo partly drawn) [Example 133, (2S)-1-(2-(4-(3-fluoro-4-((1-(3-isopropyl-1,2,4-oxadiazol-5-yl)piperidin-4-yl)methoxy)phenyl)cyclohex-3-enecarboxamido)acetyl)pyrrolidine-2-carboxamide]
EC50 [1]: 400 nM

CC(C)c1noc(N2CCC(COc3ccc(C4=CCC(C(=O)NCCC(=O)N5CCC[C@H]5C(N)=O)CC4)cc3F)CC2)n1 (stereo partly drawn) [Example 134, (2S)-1-(3-(4-(3-fluoro-4-((1-(3-isopropyl-1,2,4-oxadiazol-5-yl)piperidin-4-yl)methoxy)phenyl)cyclohex-3-enecarboxamido)propanoyl)pyrrolidine-2-carboxamide]
EC50 [1]: 350 nM

CCc1cnc(N2CCC(COc3ccc(C4=CCC(C(=O)N5CC[C@H](O)C5)CC4)cc3)CC2)nc1 (stereo partly drawn) [Example 135, (4-(4-((1-(5-ethylpyrimidin-2-yl)piperidin-4-yl)methoxy)phenyl)cyclohex-3-enyl)((S)-3-hydroxypyrrolidin-1-yl)methanone]
EC50 [1]: 30 nM
EC50 (read-out: EC50 value): ≤ 50 nM

CCc1cnc(N2CCC(COc3ccc(C4=CCC(C(=O)NC[C@H](C)O)CC4)cc3)CC2)nc1 (stereo partly drawn) [Example 136, 4-(4-((1-(5-ethylpyrimidin-2-yl)piperidin-4-yl)methoxy)phenyl)-N-((S)-2-hydroxypropyl)cyclohex-3-enecarboxamide]
EC50 [1]: 62 nM

CC(C)(C)OC(=O)N1CCC(COc2ccc(C3=CCC(C(=O)NC4CC4)CC3)c(F)c2)CC1 (stereo not shown) [Example 137, tert-butyl 4-((4-(4-(cyclopropylcarbamoyl)cyclohex-1-enyl)-3-fluorophenoxy)methyl)piperidine-1-carboxylate]
EC50 [1]: 60 nM

CC(C)(C)OC(=O)N1CCC(COc2ccc(C3=CCC(C(=O)NCCF)CC3)c(F)c2)CC1 (stereo not shown) [Example 138, tert-butyl 4-((3-fluoro-4-(4-(2-fluoroethylcarbamoyl)cyclohex-1-enyl)phenoxy)methyl)piperidine-1-carboxylate]
EC50 [1]: 100 nM

CC(C)c1noc(N2CCC(COc3ccc(C4=CCC(C(=O)NCCC(=O)N5CCC[C@H]5C#N)CC4)cc3F)CC2)n1 (stereo partly drawn) [Example 140, N-(3-((S)-2-cyanopyrrolidin-1-yl)-3-oxopropyl)-4-(3-fluoro-4-((1-(3-isopropyl-1,2,4-oxadiazol-5-yl)piperidin-4-yl)methoxy)phenyl)cyclohex-3-enecarboxamide]
EC50 [1]: 120 nM

CC(C)(C)OC(=O)N1CCC(COc2ccc(C3=CCC(C(=O)NCC(F)F)CC3)c(F)c2)CC1 (stereo not shown) [Example 141, tert-butyl 4-((4-(4-(2,2-difluoroethylcarbamoyl)cyclohex-1-enyl)-3-fluorophenoxy)methyl)piperidine-1-carboxylate]
EC50 [1]: 75 nM

CC(C)(C)OC(=O)N1CCC(COc2ccc(C3=CCC(C(=O)NCC(F)(F)F)CC3)c(F)c2)CC1 (stereo not shown) [Example 142, tert-butyl 4-((3-fluoro-4-(4-(2,2,2-trifluoroethylcarbamoyl)cyclohex-1-enyl)phenoxy)methyl)piperidine-1-carboxylate]
EC50 [1]: 85 nM

CC(C)c1noc(N2CCC(COc3ccc(C4=CCC(C(=O)N5CC[C@@H](CO)C5)CC4)cc3)CC2)n1 (stereo partly drawn) [Example 149, ((R)-3-(hydroxymethyl)pyrrolidin-1-yl)(4-(4-((1-(3-isopropyl-1,2,4-oxadiazol-5-yl)piperidin-4-yl)methoxy)phenyl)cyclohex-3-enyl)methanone]
EC50 [1]: 23 nM
EC50 (read-out: EC50 value): ≤ 50 nM

CC(C)c1noc(N2CCC(COc3ccc(C4=CCC(C(=O)N5CC[C@H](CO)C5)CC4)cc3)CC2)n1 (stereo partly drawn) [Example 150, ((S)-3-(hydroxymethyl)pyrrolidin-1-yl)(4-(4-((1-(3-isopropyl-1,2,4-oxadiazol-5-yl)piperidin-4-yl)methoxy)phenyl)cyclohex-3-enyl)methanone]
EC50 [1]: 19 nM
EC50 (read-out: EC50 value): ≤ 50 nM

CCc1cnc(N2CCC(COc3ccc(C4=CCC(C(=O)N5CC[C@H](CO)C5)CC4)cc3)CC2)nc1 (stereo partly drawn) [Example 152, (4-(4-((1-(5-ethylpyrimidin-2-yl)piperidin-4-yl)methoxy)phenyl)cyclohex-3-enyl)((S)-3-(hydroxymethyl)pyrrolidin-1-yl)methanone]
EC50 [1]: 36 nM
EC50 (read-out: EC50 value): ≤ 50 nM
